Measured values reported in patent US5827845A, “Cephalosporin derivative” (priority 1993, dated 1998).

Legend:
[1] = blood concentration pharmacokinetics after subcutaneous injection in mice; assay type: in vivo, mice (Jcl;ICR strain); conditions: for half-life / AUC: mouse, serum, sc, 0.5 mg; for AUC: read-out: AUC (area under the plasma concentration-time curve); for concentration in blood (in words): injected subcutaneously, mice
Procedure: The test procedure used was as follows: Thus, to mice of Jcl;ICR strain (4 week-aged, male) each was administered subcutaneously an aqueous solution containing 2.5 mg/ml of a test compound dissolved in distilled water sterilized for injections, in such a way that 0.2 ml of said aqueous solution (corresponding to a dosage of the test compound of 0.5 mg per mouse) was injected to one mouse. At the time-points of 5, 15, 30, 60 and 120 minutes after the administration, the blood samples were collected from the armpit of mouse. The blood samples so collected were each allowed to stand for about 2 hours at room temperature and then centrifuged for 10 minutes in a centrifugal separator to recover the serum. The serum obtained was mixed well with an equal volume of methanol added thereto, and the resulting mixture was centrifuged at 12,000 rpm. for 3 minutes. The supernatant obtained was passed through a filter (Sumplep LCR-13-LH) to obtain the serum sample to be assayed by a high performance liquid chromatography (HPLC). This serum sample was assayed by HPLC to measure quantitatively the concentration of the test compound in the serum.
For each test compound, its half-life value in blood and its AUC (Area under the plasma concentration-time curve),which are the pharmacokinetic parameters, were evaluated according to the method of Gauss-Newton.
For the comparison purpose, the ME1206 compound was also tested in the same manner as above.

[2] = test system: Staphylococcus aureus M126*; assay: minimum growth inhibitory concentration, serial dilution method; assay type: cell-based; conditions: S. aureus M126, methicillin-resistant (MRSA), sodium salts, 35° C., 18-20 hours; for MIC: Staphylococcus aureus, read-out: Minimum growth inhibition concentrations (MIC)
Procedure: (§1) The determination of MIC. was conducted by inoculating the test microorganism to an incubation medium N for sensitive disc (a product of Nissui Seiyaku Co., Japan), effecting the incubation at 35° C. for 18-20 hours and then estimating the growth of the bacteria. The compounds tested were the sodium salts of Compound A to Compound F indicated below:
(§2) For the comparison purpose, the values similarly determined of MIC. ([…]) of ME1206 compound (sodium salt), Cefdinir (sodium salt) (abbreviated as CFDN) and Cefixime (sodium salt) (abbreviated as CFIX) are also shown in Table 1.

[3] = test system: Serratia marcescens No. 1; assay: as above; assay type: cell-based; conditions: sodium salts, 35° C., 18-20 hours; for MIC: read-out: Minimum growth inhibition concentrations (MIC)
Procedure: as §1, §2

[4] = test system: Staphylococcus aureus 209P JC-1; assay: as above; assay type: cell-based; conditions: S. aureus 209P JC-1, sodium salts, 35° C., 18-20 hours; for MIC: Staphylococcus aureus, 209P, read-out: Minimum growth inhibition concentrations (MIC)
Procedure: as §1, §2

Morganella morganii 1510 = assay: as above; assay type: cell-based; conditions: sodium salts, 35° C., 18-20 hours; for MIC: Morganella morganii, 1510, Morganella morganii 1510, read-out: Minimum growth inhibition concentrations (MIC)
Procedure: as §1, §2

[5] = test system: Staphylococcus aureus M133*; assay: as above; assay type: cell-based; conditions: S. aureus M133, methicillin-resistant (MRSA), sodium salts, 35° C., 18-20 hours; for MIC: Staphylococcus aureus, MRSA, read-out: Minimum growth inhibition concentrations (MIC)
Procedure: as §1, §2

Escherichia coli GN 206 = assay: as above; assay type: cell-based; conditions: sodium salts, 35° C., 18-20 hours; for MIC: Escherichia coli, GN206, Escherichia coli GN 206, read-out: Minimum growth inhibition concentrations (MIC)
Procedure: as §1, §2

[6] = test system: Enterococcus faecalis W-73; assay: as above; assay type: cell-based; conditions: sodium salts, 35° C., 18-20 hours; for MIC: Enterococcus faecalis, W73, Enterococcus faecalis W-73, read-out: Minimum growth inhibition concentrations (MIC); for Minimum growth inhibition concentrations (MIC): Enterococcus faecalis W-73
Procedure: as §1, §2

[7] = test system: Enterococcus hirae ATCC 8043; assay: as above; assay type: cell-based; conditions: sodium salts, 35° C., 18-20 hours; for MIC: Enterococcus hirae, ATCC8043, Enterococcus hirae ATCC 8043, read-out: Minimum growth inhibition concentrations (MIC)
Procedure: as §1, §2

[8] = test system: Enterobacter cloacae G-0008; assay: as above; assay type: cell-based; conditions: 35° C., 18-20 hours; for MIC: G0008, sodium salts, read-out: Minimum growth inhibition concentrations (MIC)
Procedure: as §1, §2

[9] = sodium salt, subcutaneous, 0.5 mg per mouse, HPLC of serum

SMILES | half-life [1, 9] [h] | AUC [1, 9] [µg·h/mL] | MIC [2] [µg/mL] | MIC [3] [µg/mL] | MIC [4] [µg/mL] | MIC (Morganella morganii 1510) [µg/mL] | MIC [5] [µg/mL] | MIC (Escherichia coli GN 206) [µg/mL] | MIC [6] [µg/mL] | MIC [7] [µg/mL] | MIC [8] [µg/mL] | concentration in blood (in words) [1] | further results
CON=C(C(=O)NC1C(=O)N2C(C(=O)O)=C(C=Cc3scnc3C)CSC12)c1csc(N)n1 (stereo not drawn) [ME1206, 7-[2-methoxyimino-2-(2-aminothiazol-4-yl)acetamido]-3-[2-(4-methylthiazol-5-yl)vinyl]-3-cephem-4-carboxylic acid (syn-isomer, cis-isomer), reference compound] | 1.1 | 184 | 100 | 0.39 | 0.39 | 25 | 25 | 0.78 | 100 | 50 | 1.56 | – | –
Cc1ncsc1C=CC1=C(C(=O)O)N2C(=O)C(NC(=O)C(=NO)c3nsc(N)n3)C2SC1 (stereo not drawn) [Compound F, 7-[2-Hydroxyimino-2-(5-amino-1,2,4-thiadiazol-3-yl)acetamido]-3-[2-(4-methylthiazol-5-yl)vinyl]-3-cephem-4-carboxylic acid (syn-isomer, cis-isomer)] | 0.9 | 163 | 50 | 3.13 | 0.39 | 25 | 3.13 | 6.25 | 25 | 25 | 1.56 | capable of maintaining a high concentration in blood | –
Nc1nc(C(=NO)C(=O)NC2C(=O)N3C(C(=O)O)=C(C=Cc4cncs4)CSC23)cs1 (stereo not drawn) [Compound E, 7-[2-Hydroxyimino-2-(2-aminothiazol-4-yl)acet-amido]-3-[2-(thiazol-5-yl)vinyl]-3-cephem-4-carboxylic acid (syn-isomer, trans-isomer)] | 1.1 | 253 | – | – | – | – | – | – | – | – | – | capable of maintaining a high concentration in blood | Minimum growth inhibition concentrations (MIC) [2]: 25 µg/mL; Minimum growth inhibition concentrations (MIC) [3]: 0.78 µg/mL; Minimum growth inhibition concentrations (MIC) [4]: 0.20 µg/mL; Minimum growth inhibition concentrations (MIC) (Morganella morganii 1510; Morganella morganii 1510): 6.25 µg/mL; Minimum growth inhibition concentrations (MIC) [5]: 6.25 µg/mL; Minimum growth inhibition concentrations (MIC) (Escherichia coli GN 206; Escherichia coli GN 206): 0.78 µg/mL; Minimum growth inhibition concentrations (MIC) [6]: 3.13 µg/mL; Minimum growth inhibition concentrations (MIC) ([7]; Enterococcus hirae ATCC 8043): 25 µg/mL; Minimum growth inhibition concentrations (MIC) ([8]; sodium salts): 0.78 µg/mL
Nc1nc(C(=NO)C(=O)NC2C(=O)N3C(C(=O)O)=C(C=Cc4cncs4)CSC23)cs1 (stereo not drawn) [Compound D, 7-[2-Hydroxyimino-2-(2-aminothiazol-4-yl)acet-amido]-3-[2-(thiazol-5-yl)vinyl]-3-cephem-4-carboxylic acid(syn-isomer, cis-isomer)] | – | – | 25 | 0.78 | 0.1 | 12.5 | 3.13 | 1.56 | – | 12.5 | 0.78 | capable of maintaining a high concentration in blood | Minimum growth inhibition concentrations (MIC) [6]: 1.56 µg/mL
C=CC1=C(C(=O)O)N2C(=O)[C@@H](NC(=O)/C(=N\OCC(=O)O)c3csc(N)n3)[C@H]2SC1 [CFIX, Cefixime, reference compound] | – | – | > 100 | 0.78 | 12.5 | 50 | 100 | 50 | > 100 | > 100 | 0.78 | – | –
C=CC1=C(C(=O)O)N2C(=O)[C@@H](NC(=O)/C(=N\O)c3csc(N)n3)[C@H]2SC1 [CFDN, Cefdinir, reference compound] | – | – | > 100 | 25 | 0.2 | 25 | 6.25 | 25 | 25 | 50 | 6.25 | – | –

Now from value to compound, other results behind:

half-life [1, 9] [h] | AUC [1, 9] [µg·h/mL] | MIC [2] [µg/mL] | MIC [3] [µg/mL] | MIC [4] [µg/mL] | MIC (Morganella morganii 1510) [µg/mL] | MIC [5] [µg/mL] | MIC (Escherichia coli GN 206) [µg/mL] | MIC [6] [µg/mL] | MIC [7] [µg/mL] | MIC [8] [µg/mL] | SMILES | concentration in blood (in words) [1] | further results
1.4 | 249 | 25 | 1.56 | 0.2 | 1.56 | 6.25 | 3.13 | 12.5 | 6.25 | 0.78 | Cc1ncsc1C=CC1=C(C(=O)O)N2C(=O)C(NC(=O)C(=NO)c3csc(N)n3)C2SC1 (stereo not drawn) [Compound C, 7-[2-Hydroxyimino-2-(2-aminothiazol-4-yl)acet-amido]-3-[2-(4-methylthiazol-5-yl)vinyl]-3-cephem-4-carboxylic acid (syn-isomer, cis-isomer)] | capable of maintaining a high concentration in blood | AUC (area under the plasma concentration-time curve) [1, 9]: 315.5 µg·h/mL; Half-life value in blood [1, 9]: 1.7 h
1.1 | 211 | 25 | 1.56 | 0.1 | 12.5 | 6.25 | 1.56 | 6.25 | 12.5 | 1.56 | Nc1nc(C(=NO)C(=O)NC2C(=O)N3C(C(=O)O)=C(C=Cc4scnc4Cl)CSC23)cs1 (stereo not drawn) [Compound A, 7-[2-Hydroxyimino-2-(2-aminothiazol-4-yl)acet-amido]-3-[2-(4-chlorothiazol-5-yl)vinyl]-3-cephem-4-carboxylic acid (syn-isomer, cis-isomer)] | capable of maintaining a high concentration in blood | –
0.7 | 149 | 25 | 1.56 | 0.39 | 1.56 | 6.25 | 1.56 | 12.5 | 6.25 | 1.56 | Nc1nc(C(=NO)C(=O)NC2C(=O)N3C(C(=O)O)=C(C=Cc4scnc4C(F)(F)F)CSC23)cs1 (stereo not drawn) [Compound B, 7-[2-Hydroxyimino-2-(2-aminothiazol-4-yl)acet-amido]-3-[2-(4-trifluoromethylthiazol-5-yl)vinyl]-3-cephem-4-carboxylic acid (syn-isomer, cis-isomer)] | capable of maintaining a high concentration in blood | –
